Experiments:
[1] = target: T1, TAK1-TAB1 (Homo sapiens, UniProt O43318); assay: TAK1-TAB1 binding inhibitory potency (LanthaScreen competitive binding assay, kinase tracer-236); settings: 10 nM TAK1-TAB1, 100 nM kinase tracer-236; read-out: TAK1-Tab Inhibition IC50
T1 sequence (O43318 with tags, fused parts or gaps limits assumed): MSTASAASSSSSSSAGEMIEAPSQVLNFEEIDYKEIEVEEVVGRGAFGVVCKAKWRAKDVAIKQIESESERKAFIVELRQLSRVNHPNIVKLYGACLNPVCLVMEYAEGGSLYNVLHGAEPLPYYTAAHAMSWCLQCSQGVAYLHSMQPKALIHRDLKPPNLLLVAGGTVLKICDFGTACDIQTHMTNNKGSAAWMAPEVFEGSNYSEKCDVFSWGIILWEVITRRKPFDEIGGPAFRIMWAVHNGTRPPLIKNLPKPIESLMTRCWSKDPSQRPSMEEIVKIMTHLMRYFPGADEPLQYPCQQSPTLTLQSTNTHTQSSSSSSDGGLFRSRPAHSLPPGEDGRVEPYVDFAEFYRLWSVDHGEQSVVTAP
From the text: TAK1-TAB1 Binding Inhibitory Potency:
The ability of candidate compounds to interact with TAK1-TAB1 is quantitated by a competitive binding assay using the LanthaScreen technology developed by Life Technologies. This assay is based on the binding of a proprietary, Alexa Fluor® 647-labeled, ATP-competitive kinase inhibitor (kinase tracer-236) to the TAK1-TAB1 construct in presence of a europium-conjugated antibody, resulting in a FRET (fluorescence resonance energy transfer) signal. Displacement of the kinase tracer by compound results in a lower emission ratio upon excitation of the europium chelate. Candidate compounds are designed as potential irreversible inhibitors of TAK1-TAB1, capable of ligating to an active site cysteine residue. The time dependent nature of irreversible inhibition is investigated by performing the binding assay with and without a pre-incubation of compound and TAK1-TAB1.
The inhibitory potency of candidate compounds is measured in 20 mM HEPES pH 7.5, 10 mM MgCl2, 0.01% BSA, 0.0005% Tween-20, and 2% DMSO in the presence of 10 nM TAK1-TAB1, 2 nM Eu-anti-his antibody, and 100 nM kinase tracer-236 using a 384-well plate format. Background signal is defined in the absence of TAK1-TAB1 and uninhibited signal is defined in the presence of vehicle (2% DMSO) alone. Compounds were evaluated in an 11 point dose-response ranging from 20 μM to 0.34 nM. The binding assays are performed under two conditions to evaluate time dependence of inhibition. For the pre-incubation assay, TAK1-TAB1 and Eu-anti-his antibody are preincubated with compound or vehicle for two hours prior to the addition of kinase tracer. The non-preincubated assay is run in which TAK1-TAB1 and Eu-anti-his antibody are added to a mixture of compound and kinase tracer. IC50 values of compounds are determined using a 4 parameter logistical fit of emission ratio as a function of the concentration of compound. […]

[2] = system: IL-6 Production in Human Peripheral Blood Mononuclear Cells (PBMC); assay: LPS stimulated IL-6 production in PBMC cells; format: cell-based; settings: read-out: IL-6 Production Inhibition IC50
Experimental: LPS Stimulated IL-6 Production in PBMC Cells:
Lipopolysaccharide (LPS) stimulated IL-6 Production in Human Peripheral Blood Mononuclear Cells (PBMC): The cellular efficacy of compound candidates is determined using peripheral blood mononuclear cells purified from human whole blood, based upon the methods of Burnette et al. (2009) Pharmacology, 84:42-60. PBMC produce a number of cytokines (IL6, IL8, IL1β and TNFα) in response to stimulation with LPS. To induce the production of inflammatory mediators, PBMC are plated at a final concentration of 2×10^5 cells/well in a 96 well flat bottom plate in DMEM medium supplemented with 10% fetal bovine serum, 100 units/ml penicillin and 100 μg/ml streptomycin (Gibco BRL Life Technologies). Cells are treated with or without inhibitors for 1-3 hrs then stimulated with 100 ng/ml LPS (serotype 011:B4, Sigma) for an additional 3 hrs at 37° C. with 5% CO2. The supernatants are removed and stored at −20° C. until they are to be assayed. The levels of inflammatory mediators are determined using commercial MSD cytokine kits (Meso Scale Discovery) as per the manufacturer's instructions. Standard curves are based on 7 steps of 4× serial dilutions, with a wide dynamic range of 10000 pg/ml to 2.4 pg/ml, and a blank. Lower limit of detection (LLOD) is calculated at the commonly used 3× the standard deviation of the blank.

Row | SMILES | IC50 [1] | IC50 [2]
1 | NC(=O)/C=C\C(=O)Nc1c[nH]c2ncc(-c3ccccc3)cc12 [Example 234, N^1--(5-phenyl-1H-pyrrolo[2,3-b]pyridin-3-yl)maleamide] | > 1000 nM | ≤ 1000 nM
2 | CC(C)Oc1cc(-c2cnc3[nH]cc(/C=C/C(N)=O)c3c2)cc(C(F)(F)F)n1 [Example 272, (E)-3-(5-(2-isopropoxy-6-(trifluoromethyl)pyridin-4-yl)-1H-pyrrolo[2,3-b]pyridin-3-yl)acrylamide] | ≤ 1000 nM | ≤ 1000 nM
3 | CN1CCN(c2cc(-c3cnc4[nH]cc(/C=C/C(N)=O)c4c3)ccn2)CC1 [Example 273, (E)-3-(5-(2-(4-methylpiperazin-1-yl)pyridin-4-yl)-1H-pyrrolo[2,3-b]pyridin-3-yl)acrylamide] | ≤ 1000 nM | ≤ 1000 nM
4 | CC(=O)O[C@@H](C)CNC(=O)c1ccc(-c2cnc3[nH]cc(/C=C/C(N)=O)c3c2)cc1 [Example 293, (S,E)-1-(4-(3-(3-amino-3-oxoprop-1-en-1-yl)-1H-pyrrolo[2,3-b]pyridin-5-yl)benzamido) propan-2-yl acetate] | ≤ 1000 nM | > 1000 nM
5 | Cn1cc(-c2cnc3[nH]cc(/C=C/C(N)=O)c3n2)cn1 [Example 6, (E)-3-(2-(1-Methyl-1H-pyrazol-4-yl)-5H-pyrrolo[2,3-b]pyrazin-7-yl)acrylamide] | ≤ 1000 nM | ≤ 1000 nM
6 | CC(O)c1cncc(-c2cnc3[nH]cc(/C=C/C(N)=O)c3c2)c1 (stereo not drawn) [Example 299, (E)-3-(5-(5-(1-hydroxyethyl)pyridin-3-yl)-1H-pyrrolo[2,3-b]pyridin-3-yl)acrylamide] | ≤ 1000 nM | > 1000 nM
7 | CC(C)(C)OC(=O)N1CCN(c2cnc3[nH]cc(/C=C/C(N)=O)c3c2)CC1 [Example 266, (E)-tert-butyl 4-(3-(3-amino-3-oxoprop-1-en-1-yl)-1H-pyrrolo[2,3-b]pyridin-5-yl)piperazine-1-carboxylate] | ≤ 1000 nM | ≤ 1000 nM
8 | NC(=O)/C=C/c1c[nH]c2ncc(-c3ccc(C(=O)N4CCCCC4)cc3)cc12 [Example 262, (E)-3-(5-(4-(piperidine-1-carbonyl)phenyl)-1H-pyrrolo[2,3-b]pyridin-3-yl)acrylamide] | ≤ 1000 nM | ≤ 1000 nM
9 | NC(=O)/C=C/c1c[nH]c2ncc(-c3ccc(F)cc3F)cc12 [Example 2, (E)-3-(5-(2,4-Difluorophenyl)-1H-pyrrolo[2,3-b]pyridin-3-yl)acrylamide] | ≤ 1000 nM | ≤ 1000 nM
10 | CC(C)NC(=O)c1ccc(-c2cnc3[nH]cc(/C=C/C(N)=O)c3c2)cn1 [Example 280, (E)-5-(3-(3-amino-3-oxoprop-1-en-1-yl)-1H-pyrrolo[2,3-b]pyridin-5-yl)-N-isopropyl-picolinamide] | ≤ 1000 nM | ≤ 1000 nM
11 | CC(C)Nc1cnc2[nH]cc(/C=C/C(N)=O)c2c1 [Example 9, 3-(5-Isopropylamino-1H-pyrrolo[2,3-b]pyridin-3-yl)-acrylamide] | ≤ 1000 nM | ≤ 1000 nM
12 | CC(C)Oc1ccnc2[nH]cc(/C=C/C(N)=O)c12 [Example 7, (E)-3-(4-Isopropoxy-1H-pyrrolo[2,3-b]pyridin-3-yl)acrylamide] | ≤ 1000 nM | ≤ 1000 nM
13 | O=C(/C=C/CO)Nc1c[nH]c2ncc(-c3ccccc3)cc12 [Example 239, (E)-4-hydroxy-N-(5-phenyl-1H-pyrrolo[2,3-b]pyridin-3-yl)but-2-enamide] | ≤ 1000 nM | 
14 | NC(=O)/C=C/c1c[nH]c2ncc(-c3ccc(OCC4CC4)nc3)cc12 [Example 327, (E)-3-(5-(6-(cyclopropyl-methoxy)pyridin-3-yl)-1H-pyrrolo[2,3-b]pyridin-3-yl)acrylamide] | ≤ 1000 nM | 
15 | N#C/C(=C\c1c[nH]c2ncc(-c3ccc(OCC4CC4)nc3)cc12)C(N)=O [Example 364, (E)-2-cyano-3-(5-(6-(cyclopropyl-methoxy)pyridin-3-yl)-1H-pyrrolo[2,3-b]pyridin-3-yl)acrylamide] | ≤ 1000 nM | 
16 | COc1cc(-c2cnc3[nH]cc(/C=C/C(N)=O)c3c2)cc(C(F)(F)F)c1 [Example 349, (E)-3-(5-(3-methoxy-5-(trifluoromethyl)phenyl)-1H-pyrrolo[2,3-b]pyridin-3-yl)acrylamide] | ≤ 1000 nM | 
17 | CC(C)Cn1cc(-c2cnc3[nH]cc(/C=C/C(N)=O)c3c2)ccc1=O [Example 326, (E)-3-(5-(1-isobutyl-6-oxo-1,6-dihydropyridin-3-yl)-1H-pyrrolo[2,3-b]pyridin-3-yl)acrylamide] | ≤ 1000 nM | 

Second part, led by results:

Row | IC50 [1] | SMILES | IC50 [2]
18 | ≤ 1000 nM | CC(=O)/C=C/C(=O)Nc1c[nH]c2ncc(-c3ccccc3)cc12 [Example 240, (E)-4-oxo-N-(5-phenyl-1H-pyrrolo[2,3-b]pyridin-3-yl)pent-2-enamide] | ≤ 1000 nM
19 | ≤ 1000 nM | CCOCCN1CCN(c2cnc3[nH]cc(/C=C/C(N)=O)c3c2)CC1 [Example 271, (E)-3-(5-(4-(2-ethoxyethyl)piperazin-1-yl)-1H-pyrrolo[2,3-b]pyridin-3-yl)acrylamide] | ≤ 1000 nM
20 | ≤ 1000 nM | CC(C)(O)Cn1cc(-c2cnc3[nH]cc(/C=C/C(N)=O)c3c2)ccc1=O [Example 292, (E) -3-(5-(1-(2-hydroxy-2-methylpropyl)-6-oxo-1,6-dihydropyridin-3-yl)-1H-pyrrolo[2,3-b]pyridin-3-yl)acrylamide] | > 1000 nM
21 | ≤ 1000 nM | CS(=O)(=O)c1ccc(-c2cnc3[nH]cc(/C=C/C(N)=O)c3c2)cc1 [Example 23, (E)-3-(5-(4-(methylsulfonyl)phenyl)-1H-pyrrolo[2,3-b]pyridin-3-yl)acrylamide] | > 1000 nM
22 | ≤ 1000 nM | CC(C)Oc1ccc(-c2cnc3[nH]cc(/C=C/C(N)=O)c3n2)cn1 [Example 284, (E)-3-(2-(6-isopropoxypyridin-3-yl)-5H-pyrrolo[2,3-b]pyrazin-7-yl)acrylamide] | ≤ 1000 nM
23 | ≤ 1000 nM | CN1CCC(NC(=O)c2ccc(-c3cnc4[nH]cc(/C=C/C(N)=O)c4c3)nc2)CC1 [Example 296, (E)-6-(3-(3-amino-3-oxoprop-1-en-1-yl)-1H-pyrrolo[2,3-b]pyridin-5-yl)-N-(1-methylpiperidin-4-yl)nicotinamide] | > 1000 nM
24 | ≤ 1000 nM | COc1ccc(-c2cnc3[nH]cc(/C=C/C(N)=O)c3c2)cn1 [Example 20, (E)-3-(5-(6-methoxypyridin-3-yl)-1H-pyrrolo[2,3-b]pyridin-3-yl)acrylamide] | ≤ 1000 nM
25 | ≤ 1000 nM | NC(=O)/C=C/c1c[nH]c2ncc(-c3ccccc3)nc12 [Example 4, (E)-3-(2-Phenyl-5H-pyrrolo[2,3-b]pyrazin-7-yl)acrylamide] | ≤ 1000 nM
26 | ≤ 1000 nM | NC(=O)/C=C/c1c[nH]c2ncc(-c3ccc(C(F)(F)F)cc3)cc12 [Example 252, (E)-3-(5-(4-(trifluoromethyl)phenyl)-1H-pyrrolo[2,3-b]pyridin-3-yl)acrylamide] | ≤ 1000 nM
27 | ≤ 1000 nM | CC(C)Oc1ccc(-c2cnc3[nH]cc(/C=C/C(N)=O)c3c2)cn1 [Example 260, (E)-3-(5-(6-isopropoxypyridin-3-yl)-1H-pyrrolo[2,3-b]pyridin-3-yl)acrylamide] | ≤ 1000 nM
28 | ≤ 1000 nM | N#Cc1ccc(-c2cnc3[nH]cc(/C=C/C(N)=O)c3n2)cn1 [Example 285, (E)-3-(2-(6-cyanopyridin-3-yl)-5H-pyrrolo[2,3-b]pyrazin-7-yl)acrylamide] | ≤ 1000 nM

Source: patent publication US9499551B2, “Substituted pyrrolo[2,3-b]pyridines for treating cancer or inflammatory diseases” (Confluence Life Sciences, Inc., priority 2014, dated 2016)
